Laboratory results published in patent publication US20240245677A1, “SELECTED COMPOUNDS FOR TARGETED DEGRADATION OF BRD9” (C4 THERAPEUTICS, INC., priority 2021, published 2024).

What was measured:
[1] = Variable temperature XRPD (VT-XRPD) experiments; assay type: physicochemical
Experimental: To investigate form conversion behavior, variable temperature XRPD experiments were conducted for hydrate Pattern A, hydrate Pattern C, hydrate Pattern F and hetero-solvate Pattern L.
Based on DSC and TGA results, variable temperature XRPD was conducted for Pattern A, at different temperatures, including 25° C., 110° C. and 25° C.
Based on DSC and TGA results, variable temperature XRPD was conducted for Pattern B, at different temperatures, including 25° C., 80° C., 130° C. and 25° C. The sample after heating-cooling was placed at 25° C./75% RH condition for 1 day and investigated by XRPD.
Based on DSC and TGA results, variable temperature XRPD was conducted for Pattern C, at different temperatures, including 25° C., 110° C. and 25° C.
Based on DSC and TGA results, variable temperature XRPD was conducted for Pattern F at different temperatures, including 25° C., 110° C. and 25° C. The sample after heating-cooling was placed at 25° C./75% RH condition for 1 day and investigated by XRPD.
Based on DSC and TGA results, variable temperature XRPD was conducted for Pattern L, at different temperatures, including 25° C., 100° C., 140° C., 180° C. and 25° C. The sample after heating-cooling was placed at 25° C./92% RH condition for 24 h and investigated by XRPD.

IKZF1 = target: T1, IKZF1 (Homo sapiens, UniProt Q13422+Q96SW2); test: IKZF1 HiBiT degradation assay in NCIH929.11 cells; assay type: cell-based
T1 construct: CRISPR-edited to endogenously express HiBiT tagged IKZF1; host or cells: NCIH929.11

SALL4 = target: T2, SALL4 (Homo sapiens, UniProt Q96SW2+Q9UJQ4); test: SALL4 HiBiT degradation assay in KELLY.2 cells; assay type: cell-based; settings: read-out: Mean Emax (%) ± SD
T2 construct: CRISPR-edited to endogenously express HiBiT tagged SALL4; host or cells: KELLY.2
Source text: Nano-Glo® HiBiT Lytic Assay System was purchased from Promega (Catalog No. N3050, Madison, WI, USA). […] The HiBiT polypeptide tag was introduced into the C-terminus of the endogenous SALL4 locus by CRISPR-Cas9 to produce the modified KELLY.2 cell line. The HiBiT polypeptide allows reconstitution of NanoBiT enzyme following cell lysis and addition of the complementing LgBiT polypeptide that activates substrate to produce a luminescent signal that is directly proportional to the amount of HiBiT-tagged SALL4.
KELLY.2 cells were routinely sub-cultured to maintain cell density between 30-80% confluence, not to exceed 10 passages. Cells were washed with PBS, trypsinized for 5 minutes at 37° C., and resuspended in fresh growth media without phenol red. […] Cell concentration was adjusted with growth media without phenol red to 2×10^5 cells/mL.
30 nL DMSO was transferred to all control wells.
30 μL of media was dispensed to column 24 as background positive control (P). Plates were spun briefly at 1000 rpm and cells were incubated at 37° C., 5% CO2 for 6 hours. Final concentration of DMSO was 0.1% for all samples.
Cellular SALL4 protein level was determined based on quantification of HiBiT using Nano-Glo® HiBiT Lytic Assay System (Promega). […] Cells treated in the absence of the test compound (0.1% DMSO vehicle) were the negative control (N) and wells containing only media were the positive control (P).
Percent response of compound-treated samples (T) were calculated by normalizing to the DMSO treated negative (N) controls on the same microtiter plate after background (i.e., positive control) signal subtraction:
Curve fit and DC50 (concentration that degrades 50% SALL4) determination was performed by 4 parametric logistic fit analysis using software such as GraphPad Prism software (GraphPad Software, LLC, San Diego, CA, USA). The fit was performed through minimization of the root mean squared error between observed and calculated values of the four-parameter logistic equation using the simplex optimizer of the Apache Commons Math library. […] DC50 values were computed as the concentrations where the fitted curves cross the 50% response level. Averages and standard deviations were computed from replicates of the experiment.

T1 sequence (Q13422 whole entry): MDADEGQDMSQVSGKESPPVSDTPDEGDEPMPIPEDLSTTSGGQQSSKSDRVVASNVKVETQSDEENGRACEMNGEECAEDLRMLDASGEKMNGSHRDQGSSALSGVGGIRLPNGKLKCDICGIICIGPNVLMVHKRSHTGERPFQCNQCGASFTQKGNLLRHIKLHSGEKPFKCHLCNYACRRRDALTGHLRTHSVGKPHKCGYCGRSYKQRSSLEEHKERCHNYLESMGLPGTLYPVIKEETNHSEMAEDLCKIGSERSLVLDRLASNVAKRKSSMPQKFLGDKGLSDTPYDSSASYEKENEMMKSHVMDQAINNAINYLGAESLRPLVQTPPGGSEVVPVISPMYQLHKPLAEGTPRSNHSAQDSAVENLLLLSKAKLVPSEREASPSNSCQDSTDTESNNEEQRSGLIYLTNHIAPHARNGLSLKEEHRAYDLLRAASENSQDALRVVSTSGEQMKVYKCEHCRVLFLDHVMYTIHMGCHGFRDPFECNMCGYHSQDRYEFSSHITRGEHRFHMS
T1 sequence (Q96SW2 whole entry): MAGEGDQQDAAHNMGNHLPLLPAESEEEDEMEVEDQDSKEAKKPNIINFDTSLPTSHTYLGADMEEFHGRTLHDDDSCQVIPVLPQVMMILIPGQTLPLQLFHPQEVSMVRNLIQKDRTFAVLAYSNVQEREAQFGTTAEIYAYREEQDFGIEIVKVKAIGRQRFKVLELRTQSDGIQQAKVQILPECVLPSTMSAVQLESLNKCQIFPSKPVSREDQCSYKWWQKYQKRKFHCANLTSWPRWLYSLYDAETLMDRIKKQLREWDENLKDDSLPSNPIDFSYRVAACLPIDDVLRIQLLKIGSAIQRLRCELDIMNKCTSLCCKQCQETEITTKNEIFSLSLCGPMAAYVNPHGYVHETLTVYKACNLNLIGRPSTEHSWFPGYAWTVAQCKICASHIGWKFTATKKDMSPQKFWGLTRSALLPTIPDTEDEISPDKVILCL
T1 sequence (Q16531 2-1140 partner limits assumed): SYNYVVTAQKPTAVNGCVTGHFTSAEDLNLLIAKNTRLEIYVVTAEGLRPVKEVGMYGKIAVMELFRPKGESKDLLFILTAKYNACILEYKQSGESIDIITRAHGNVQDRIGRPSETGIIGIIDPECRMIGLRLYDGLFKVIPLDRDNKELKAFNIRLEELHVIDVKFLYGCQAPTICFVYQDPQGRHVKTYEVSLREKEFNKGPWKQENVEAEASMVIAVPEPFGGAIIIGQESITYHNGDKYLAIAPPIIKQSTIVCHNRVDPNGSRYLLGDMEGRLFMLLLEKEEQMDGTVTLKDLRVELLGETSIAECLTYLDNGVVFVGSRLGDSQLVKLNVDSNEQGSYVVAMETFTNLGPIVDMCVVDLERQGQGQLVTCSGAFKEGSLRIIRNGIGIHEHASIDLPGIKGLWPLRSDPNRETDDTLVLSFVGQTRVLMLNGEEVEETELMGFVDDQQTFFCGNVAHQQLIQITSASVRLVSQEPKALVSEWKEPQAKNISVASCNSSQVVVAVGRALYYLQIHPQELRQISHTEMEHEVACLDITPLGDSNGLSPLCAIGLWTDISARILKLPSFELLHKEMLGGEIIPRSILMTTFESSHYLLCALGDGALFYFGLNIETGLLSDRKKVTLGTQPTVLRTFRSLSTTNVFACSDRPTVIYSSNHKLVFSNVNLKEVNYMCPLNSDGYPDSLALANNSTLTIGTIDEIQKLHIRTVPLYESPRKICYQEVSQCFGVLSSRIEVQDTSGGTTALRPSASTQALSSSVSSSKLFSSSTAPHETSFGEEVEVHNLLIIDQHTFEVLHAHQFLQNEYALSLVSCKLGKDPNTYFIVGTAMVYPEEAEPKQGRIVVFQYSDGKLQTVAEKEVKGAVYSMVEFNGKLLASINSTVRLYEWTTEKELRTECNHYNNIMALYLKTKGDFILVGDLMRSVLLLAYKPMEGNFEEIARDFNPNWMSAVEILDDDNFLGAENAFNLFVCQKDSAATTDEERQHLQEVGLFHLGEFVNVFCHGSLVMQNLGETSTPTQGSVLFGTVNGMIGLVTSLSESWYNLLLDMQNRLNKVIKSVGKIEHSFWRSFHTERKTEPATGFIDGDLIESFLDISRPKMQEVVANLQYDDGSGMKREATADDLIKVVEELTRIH
T2 sequence (Q9UJQ4 whole entry): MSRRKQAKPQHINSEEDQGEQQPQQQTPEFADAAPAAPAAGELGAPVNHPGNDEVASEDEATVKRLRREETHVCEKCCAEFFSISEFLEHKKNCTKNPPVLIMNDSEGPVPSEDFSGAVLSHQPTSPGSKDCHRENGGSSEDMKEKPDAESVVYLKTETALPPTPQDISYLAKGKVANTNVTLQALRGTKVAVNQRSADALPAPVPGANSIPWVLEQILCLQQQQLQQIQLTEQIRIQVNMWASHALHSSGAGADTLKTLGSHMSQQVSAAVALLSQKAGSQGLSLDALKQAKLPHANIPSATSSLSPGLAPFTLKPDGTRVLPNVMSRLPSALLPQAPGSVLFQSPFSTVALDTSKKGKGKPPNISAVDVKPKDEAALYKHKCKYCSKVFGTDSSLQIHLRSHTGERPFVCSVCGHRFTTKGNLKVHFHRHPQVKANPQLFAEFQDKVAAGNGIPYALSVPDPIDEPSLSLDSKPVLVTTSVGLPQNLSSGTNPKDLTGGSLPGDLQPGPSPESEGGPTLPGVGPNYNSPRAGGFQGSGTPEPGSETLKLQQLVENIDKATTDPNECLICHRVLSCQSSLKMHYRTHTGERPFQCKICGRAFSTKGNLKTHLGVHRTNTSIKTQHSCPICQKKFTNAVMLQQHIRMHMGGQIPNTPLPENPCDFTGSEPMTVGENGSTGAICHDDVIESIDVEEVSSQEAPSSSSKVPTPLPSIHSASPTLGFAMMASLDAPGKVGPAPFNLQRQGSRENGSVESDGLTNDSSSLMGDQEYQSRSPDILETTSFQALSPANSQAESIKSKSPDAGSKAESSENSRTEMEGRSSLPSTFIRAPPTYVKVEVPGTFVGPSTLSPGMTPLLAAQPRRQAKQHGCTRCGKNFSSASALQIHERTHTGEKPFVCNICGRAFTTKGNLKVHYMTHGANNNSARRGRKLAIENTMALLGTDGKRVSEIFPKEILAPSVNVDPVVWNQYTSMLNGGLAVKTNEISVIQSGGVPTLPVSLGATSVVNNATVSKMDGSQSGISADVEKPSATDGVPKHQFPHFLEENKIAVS
T2 sequence (Q96SW2 whole entry): as the sequence (Q96SW2 whole entry) above
T2 sequence (Q16531 2-1140 partner limits assumed): as the sequence (Q16531 2-1140 partner limits assumed) above

Structure (SMILES)	XRPD ([1]; 25° C. (start))	XRPD ([1]; 25° C./50% RH hold 2 h)	XRPD ([1]; Cool to 25° C.)	XRPD ([1]; Heat to 110° C.)	XRPD ([1]; 25° C./92.5% RH hold 1 day)	XRPD ([1]; Heat to 100° C.)	degradation of IKZF1 induced (IKZF1; positive control, 6 hours)	Emax (IKZF1; read-out: Mean Emax (%) ± SD) [%]	Emax (SALL4) [%]
COc1cc(-c2cn(C)c(=O)c(C)c2C)cc(OC)c1CN1CC[C@H](N2CCN(c3ccc(N[C@H]4CCC(=O)NC4=O)cc3F)CC2)C(F)(F)C1 [Pattern C]	Pattern C	Pattern C	Metastable Pattern I	Metastable Pattern I					
COc1cc(-c2cn(C)c(=O)c(C)c2C)cc(OC)c1CN1CC[C@H](N2CCN(c3ccc(N[C@H]4CCC(=O)NC4=O)cc3F)CC2)C(F)(F)C1 [Pattern F]	Pattern F		Pattern H	Pattern H					
COc1cc(-c2cn(C)c(=O)c(C)c2C)cc(OC)c1CN1CC[C@H](N2CCN(c3ccc(N[C@H]4CCC(=O)NC4=O)cc3F)CC2)C(F)(F)C1 [Pattern L]	Pattern L		Pattern M		Pattern M	Pattern L			
Nc1cccc2c1C(=O)N(C1CCC(=O)NC1=O)C2=O (centres unmarked) [Pomalidomide, reference compound]							8000	20.8 ± 3.2	9.5 ± 1.5
